# Calls of active or inactive are those of the source. The rule behind the calls is not given here.
# Tested on: Teladorsagia circumcincta
# Test: Anthelmintic activity against Ostertagia circumcincta
# Format: functional
row,Compound,LD99 [µM]
1,CCCOc1ccc2nc(-c3ccc4c(c3)OCO4)cn2n1,0.33

# Tested on: Haemonchus contortus
# Test: Anthelmintic activity against Haemonchus contortus McMaster by larvel development assay
# Format: functional
row,Compound,LD99
1,COCCOc1ccc(-c2nc3ccc(OCc4ccccc4)nn3c2Cl)cc1,inactive
2,CCCOc1ccc2nc(-c3ccc(OCCOC)c(OC)c3)c(I)n2n1,10.35 µM
3,COCCOc1ccc(-c2cn3nc(N4CCCC4)ccc3n2)cc1,9.6 µM
4,COCCOc1ccc(-c2cn3nc(OC(C)C)ccc3n2)cc1,4.96 µM
5,CCCOc1nn2cc(-c3ccc(OCCOC)c(OC)c3)nc2cc1C,0.32 µM
6,CCCOc1ccc2nc(-c3ccc(OCCOC)cc3)c(-c3ccccc3)n2n1,9.29 µM
7,CCCOc1ccc2nc(-c3ccc(OCCOC)cc3)cn2n1,0.29 µM
8,CCCOc1ccc2nc(-c3ccc4c(c3)OCO4)cn2n1,0.77 µM
9,CCCCSc1ccc2nc(-c3ccc(OCCOCC)cc3)cn2n1,0.59 µM
10,Clc1ccc(-c2cn3nc(OCC4CC4)ccc3n2)c(Cl)c1,inactive
11,COCCOc1ccc(-c2cn3ncccc3n2)cc1,inactive
12,CCCSc1ccc2nc(-c3ccc(OCC)cc3)cn2n1,1.21 µM
13,CCCSc1ccc2nc(-c3cccc(OC)c3)cn2n1,2.1 µM
14,COCCOc1cccc(-c2nc3ccc(OC(C)C)nn3c2C)c1,14.65 µM
15,COCCOc1ccc(-c2cn3nc(-c4ccsc4)ccc3n2)cc1,1.96 µM
16,CCCOc1ccc2nc(-c3ccc(OCCOC)cc3)c(I)n2n1,0.03 µM
17,CCCCc1ccc2nc(-c3ccc(OCCOC)cc3)cn2n1,1.92 µM
18,IVERMECTIN,0.006 µM
19,CCCSc1ccc2nc(-c3ccc(OCCOC)cc3)cn2n1,2.36 µM

row,Compound,LD99
1,CCCOc1ccc2nc(-c3ccc(OCCOC)c(OC)c3)c(C#N)n2n1,inactive
2,CCCSc1ccc2nc(-c3ccc(Cl)cc3Cl)cn2n1,inactive
3,CCCOc1ccc2nc(-c3ccc(OCCOC)cc3)c(C)n2n1,0.32 µM
4,CCCOc1ccc2nc(-c3cccc(OCCOC)c3)c(C)n2n1,5.49 µM
5,COCCOc1cccc(-c2nc3ccc(SC(C)C)nn3c2C)c1,19.58 µM
6,CCCOc1ccc2nc(-c3ccc(OCCOC)c(OC)c3)cn2n1,2.27 µM
7,CCCOc1nn2cc(-c3ccc(OCC)cc3)nc2c2ccccc12,1.8 µM
8,CCCCSc1ccc2nc(-c3ccc(C(F)(F)F)cc3)cn2n1,inactive
9,COCCOc1ccc(-c2cn3nc(-c4ccccc4)ccc3n2)cc1,8.11 µM
10,CCCSc1ccc2nc(-c3ccc(OCCOC)c(OC)c3)cn2n1,2.17 µM
11,CCOCCOc1ccc(-c2cn3nc(OCC4CC4)ccc3n2)cc1,0.11 µM
12,CCCOc1nn2cc(-c3ccc(OCC)cc3)nc2cc1C,0.6 µM
13,CCCCOc1ccc2nc(-c3ccc(OCCOC)cc3)cn2n1,0.64 µM
14,CCCSc1ccc2nc(-c3ccc(OCCOC)c(OC)c3)c(Br)n2n1,1.66 µM
15,CCCCN(C)c1ccc2nc(-c3ccc(OCCOC)cc3)cn2n1,2.29 µM
16,CCCNc1ccc2nc(-c3ccc(OCCOC)cc3)cn2n1,2.11 µM
17,CCCOc1ccc2nc(-c3ccc(Cl)cc3)cn2n1,13.03 µM
18,CCCOc1ccc2nc(-c3ccc(OC)c(OC)c3)cn2n1,4.15 µM
19,COCCOc1ccc(-c2nc3ccc(OCC4CC4)nn3c2Br)cc1,0.1 µM

row,Compound,LD99
1,CCCOc1ccc2nc(-c3ccc(OCCOCC)cc3)cn2n1,0.32 µM
2,CCCCSc1ccc2nc(-c3ccc(OCCOC)cc3)cn2n1,0.26 µM
3,CCc1ccc(-c2cn3nc(OCC4CC4)ccc3n2)cc1,0.27 µM
4,CCCOc1ccc2nc(-c3ccc4c(c3)OCCO4)cn2n1,2.6 µM
5,CCOCCOc1ccc(-c2cn3nc(SCC(C)C)ccc3n2)cc1,0.87 µM
6,COCCOc1ccc(-c2cn3nc(OCC4CC4)ccc3n2)cc1,0.11 µM
7,CCCOc1nn2cc(-c3ccc(OCCOC)cc3)nc2c2ccccc12,0.91 µM
8,COCCOc1ccc(-c2cn3nc(OCCOC)ccc3n2)cc1,17.47 µM
9,FC(F)(F)c1ccc(-c2cn3nc(OCC4CC4)ccc3n2)cc1,inactive
10,CCCOc1ccc2nc(-c3ccc(OCCOC)cc3)c(Br)n2n1,0.03 µM
11,CCCOc1ccc2nc(-c3cccc(OC)c3)cn2n1,0.81 µM
12,c1ccc([C@H]2CN3CCSC3=N2)cc1 [LEVAMISOLE],0.66 µM
13,COCCOc1ccc(-c2cn3nc(SC(C)C)ccc3n2)cc1,0.59 µM
14,CCCOc1ccc2nc(-c3ccc(OCCOC)cc3)c(Cl)n2n1,0.06 µM
15,CCOc1ccc(-c2cn3nc(OCC4CC4)ccc3n2)cc1,0.09 µM
16,CCCOc1ccc2nc(-c3ccc(OCCOC)cc3)c(C#N)n2n1,0.11 µM
17,COCCOc1ccc(-c2cn3nc(OC4CCCC4)ccc3n2)cc1,5.31 µM
18,CCOc1ccc2nc(-c3ccc(OCCOC)cc3)cn2n1,1.3 µM
19,CCCOc1ccc2nc(-c3ccccc3)cn2n1,inactive

# Tested on: Haemonchus contortus
# Test: Anthelmintic activity against benzimidazole and Levamisole-resistant Haemonchus contortus Lawes
# Format: functional
row,Compound,LD99 [µM]
1,CCCOc1ccc2nc(-c3ccc4c(c3)OCO4)cn2n1,0.67

# Tested on: Haemonchus contortus
# Test: Anthelmintic activity against Ivermectin-resistant Haemonchus contortus CAVR
# Format: functional
row,Compound,LD99 [µM]
1,CCCOc1ccc2nc(-c3ccc4c(c3)OCO4)cn2n1,1.85

# Tested on: Haemonchus contortus
# Test: Anthelmintic activity against benzimidazole-resistant Haemonchus contortus VRSG
# Format: functional
row,Compound,LD99 [µM]
1,CCCOc1ccc2nc(-c3ccc4c(c3)OCO4)cn2n1,0.94

# Tested on: Trichostrongylus colubriformis
# Test: Anthelmintic activity against Trichostrongylus colubriformis McMaster
# Format: functional
row,Compound,LD99 [µM]
1,CCCOc1ccc2nc(-c3ccc4c(c3)OCO4)cn2n1,0.67

# Reference: ChEMBL document CHEMBL1795204 (2011)
